≈ marks a conversion by molar mass, not a printed value.
Columns and labels:
[1] = test system: E. faecalis; test: MIC assay, E. faecalis; assay type: cell-based, Enterococcus faecalis
[2] = test system: S. pneumo.; test: MIC assay, S. pneumo.; assay type: cell-based, Streptococcus pneumoniae
[3] = test system: H. flu; assay type: cell-based, H. influenza; details: H. flu
[4] = test system: E coli; test: MIC assay, E coli; assay type: cell-based
[5] = test system: S. aureus; test: MIC assay, S. aureus; assay type: cell-based, Staphylococcus aureus

| SMILES | MIC (μg/mL) E. faecalis [1] | MIC (μg/mL) S. pneumo. [2] | MIC (μg/mL) H. flu [3] | MIC (μg/mL) E coli [4] | MIC (μg/mL) S. aureus [5] |
| --- | --- | --- | --- | --- | --- |
| COC1C=COC2(C)Oc3c(C)c(O)c4c(=O)c(c5oc6cc(N7CCC(C)(NC(C)=O)CC7)cc(O)c6nc-5c4c3C2=O)NC(=O)C(C)=CC=CC(C)C(O)C(C)C(O)C(C)C(O)C1C (centres unmarked) [Compound 74, 25-O-deacetyl-3′-hydroxy-5′-[4-methyl-4-acetylamino-1-piperidinyl]benzoxazinorifamycin] | 0.5 µg/mL (≈ 0.548 µM) | 0.001 µg/mL (≈ 0.0011 µM) | 0.12 µg/mL (≈ 0.131 µM) | >8 µg/mL | 0.03 µg/mL (≈ 0.0329 µM) |
| COC1C=COC2(C)Oc3c(C)c(O)c4c(=O)c(c5oc6cc(N7CCC(N(C)C)C7)cc(O)c6nc-5c4c3C2=O)NC(=O)C(C)=CC=CC(C)C(O)C(C)C(O)C(C)C(OC(C)=O)C1C [Compound 75, 3′-hydroxy-5′-[(3R)—N,N-dimethylamino-1-pyrrolidinyl]benzoxazinorifamycin] | 0.12 µg/mL (≈ 0.131 µM) | 0.00012 µg/mL (≈ 0.000131 µM) | 0.25 µg/mL (≈ 0.274 µM) | 4 µg/mL (≈ 4.38 µM) | 0.002 µg/mL (≈ 0.00219 µM) |
| COC1C=COC2(C)Oc3c(C)c(O)c4c(=O)c(c5sc6cc(N7CCN8CCCC8C7)ccc6nc-5c4c3C2=O)NC(=O)C(C)=CC=CC(C)C(O)C(C)C(O)C(C)C(OC(C)=O)C1C [Compound 76, 5′-[(8aS)octahydropyrrolo [1,2-a]pyrazin-2-yl]benzthiazinorifamycin] | 0.5 µg/mL (≈ 0.54 µM) | 0.00025 µg/mL (≈ 0.00027 µM) | 0.25 µg/mL (≈ 0.27 µM) | 4 µg/mL (≈ 4.32 µM) | 0.008 µg/mL (≈ 0.00865 µM) |
| COC1C=COC2(C)Oc3c(C)c(O)c4c(=O)c(c5sc6cc(N7CCN8CCCC8C7)ccc6nc-5c4c3C2=O)NC(=O)C(C)=CC=CC(C)C(O)C(C)C(O)C(C)C(O)C1C [Compound 77, 25-O-deacetyl-5′-[(8aS)octahydropyrrolo[1,2-a]pyrazin-2-yl]benzthiazinorifamycin] | 0.25 µg/mL (≈ 0.283 µM) | 0.00025 µg/mL (≈ 0.000283 µM) | 0.12 µg/mL (≈ 0.136 µM) | 2 µg/mL (≈ 2.26 µM) | 0.002 µg/mL (≈ 0.00226 µM) |
| COC1C=COC2(C)Oc3c(C)c(O)c4c(=O)c(c5oc6cc(N7CCN(C)CC7)cc(O)c6nc-5c4c3C2=O)NC(=O)C(C)=CC=CC(C)C(O)C(C)C(O)C(C)C(O)C1C (centres unmarked) [Compound 82] | 0.015 µg/mL (≈ 0.0175 µM) | 0.00012 µg/mL (≈ 0.00014 µM) | 0.25 µg/mL (≈ 0.292 µM) | 4 µg/mL (≈ 4.67 µM) | 0.002 µg/mL (≈ 0.00233 µM) |
| COC1C=COC2(C)Oc3c(C)c(O)c4c(=O)c(c5oc6cc(N7CCN8CCCC8C7)cc(O)c6nc-5c4c3C2=O)NC(=O)C(C)=CC=CC(C)C(O)C(C)C(O)C(C)C(O)C1C (centres unmarked) [Compound 83] | 0.03 µg/mL (≈ 0.034 µM) | 0.00025 µg/mL (≈ 0.000283 µM) | 0.25 µg/mL (≈ 0.283 µM) | 4 µg/mL (≈ 4.53 µM) | 0.002 µg/mL (≈ 0.00226 µM) |
| COC1C=COC2(C)Oc3c(C)c(O)c4c(=O)c(c5oc6cc(N7CCN8CCCC8C7)cc(O)c6nc-5c4c3C2=O)NC(=O)C(C)=CC=CC(C)C(O)C(C)C(O)C(C)C(O)C1C (centres unmarked) [Compound 84] | 0.03 µg/mL (≈ 0.034 µM) | 0.00025 µg/mL (≈ 0.000283 µM) | 0.25 µg/mL (≈ 0.283 µM) | 8 µg/mL (≈ 9.06 µM) | 0.004 µg/mL (≈ 0.00453 µM) |

Source: patent US7271165B2, “Rifamycin analogs and uses thereof” (priority 2003, dated 2007)
